What was measured:
[1] = Stability in storage of thermal transfer recorded images; conditions: 50° C., 50 hours
Description: The recorded images obtained as described above were left standing in an atmosphere kept at 50° C. for 50 hours and, after the standing, were examined to determine the presence or absence of change caused on the images owing to the standing.
(§1) Ink compositions were prepared, transfer sheets produced, and transfer recording carried out by following the procedure of Example 89 while using the dye shown in Table 11 instead. The recorded images were tested for lightfastness and then for stability in storage in the same manner as in Example 89.
as §1, with “dyes” for “dye”, “12” for “11”

[2] = Visible absorption spectrum (λmax, ε); assay type: physicochemical; conditions: in chloroform; for ε: at λ max, in M-1 cm-1 (unit assumed)
[3] = Solubility in toluene and methyl ethyl ketone, three-point scale; assay type: physicochemical
Text: In these tables, the solubility is rated on the three-point scale, wherein Δ stands for a solubility of less than 1% by weight, .largecircle. for a solubility in the approximate range of 1 to 3% by weight, and .circleincircle. for a solubility of not less than 3% by weight.

[4] = Color tone of the dye; assay type: physicochemical; conditions: Tables 1-9

Row | Structure (SMILES) | Stability in storage [1] | λ max [2] [nm] | ε [2] | Solubility in methyl ethyl ketone [3] | Solubility in toluene [3] | Color tone [4]
1 | CCCCOc1c(Nc2c(C)cccc2C(=O)OCC)c(Nc2c(C)cccc2C(=O)OCC)c(F)c2c1C(=O)c1c(O)ccc(O)c1C2=O [(162)] | Good | – | – | – | – | –
2 | CCCCCCCCOc1c(F)c2c(c(F)c1Nc1ccc(C(=O)OCC)cc1)C(=O)c1c(O)ccc(O)c1C2=O [(33)] | Good | – | – | – | – | –
3 | CCCCOc1c(Nc2c(CC)ccc(Cl)c2CC)c(Nc2c(CC)ccc(Cl)c2CC)c(F)c2c1C(=O)c1c(O)ccc(O)c1C2=O [(160)] | Good | – | – | – | – | –
4 | CCCCOc1c(Nc2c(C(C)C)cccc2C(C)C)c(Nc2c(C(C)C)cccc2C(C)C)c(F)c2c1C(=O)c1c(O)ccc(O)c1C2=O [(159)] | Good | – | – | – | – | –
5 | CCCCCCCCOc1c(Nc2cccc(C(=O)OCC)c2)c(Nc2cccc(C(=O)OCC)c2)c(F)c2c1C(=O)c1c(O)ccc(O)c1C2=O [(156)] | Good | – | – | – | – | –
6 | CCCCCCCCOc1c(Nc2c(Cl)cccc2Cl)c(Nc2c(Cl)cccc2Cl)c(F)c2c1C(=O)c1c(O)ccc(O)c1C2=O [(183)] | Good | – | – | – | – | –
7 | CCCCNc1c(F)c2c(c(NCCCC)c1NCCCC)C(=O)c1c(O)ccc(O)c1C2=O [(248)] | – | 614 | 14900 | .largecircle. (a solubility in the approximate range of 1 to 3% by weight) | .largecircle. (a solubility in the approximate range of 1 to 3% by weight) | Blue
8 | CCCCCCCCOc1c(F)c2c(c(F)c1Nc1cccc(C(=O)OCC)c1)C(=O)c1c(O)ccc(O)c1C2=O [(34)] | – | 531 | 12400 | .circleincircle. (a solubility of not less than 3% by weight) | .circleincircle. (a solubility of not less than 3% by weight) | Magenta
9 | CCCCOC(=O)c1ccc(Nc2c(F)c(F)c3c(c2F)C(=O)c2c(O)ccc(O)c2C3=O)cc1 [(6)] | – | 528 | 17900 | .largecircle. (a solubility in the approximate range of 1 to 3% by weight) | .largecircle. (a solubility in the approximate range of 1 to 3% by weight) | Magenta
10 | N#Cc1ccc(Nc2c(F)c(F)c3c(c2F)C(=O)c2c(O)ccc(O)c2C3=O)cc1 [(10)] | – | 523 | 20600 | Δ (a solubility of less than 1% by weight) | Δ (a solubility of less than 1% by weight) | Magenta
11 | O=C1c2c(O)ccc(O)c2C(=O)c2c(F)c(Nc3ccccc3)c(F)c(F)c21 [(1)] | – | 533 | 14800 | Δ (a solubility of less than 1% by weight) | .largecircle. (a solubility in the approximate range of 1 to 3% by weight) | Magenta
12 | CCCCCCSc1c(F)c2c(c(F)c1SCCCCCC)C(=O)c1c(O)ccc(O)c1C2=O [(303)] | – | 506 | 11300 | .largecircle. (a solubility in the approximate range of 1 to 3% by weight) | .largecircle. (a solubility in the approximate range of 1 to 3% by weight) | Orange
13 | CCCCOC(=O)c1ccccc1Nc1c(F)c2c(c(F)c1Nc1ccccc1C(=O)OCCCC)C(=O)c1c(O)ccc(O)c1C2=O [(122)] | – | 614 | 14700 | .largecircle. (a solubility in the approximate range of 1 to 3% by weight) | .largecircle. (a solubility in the approximate range of 1 to 3% by weight) | Blue
14 | O=C1c2c(O)ccc(O)c2C(=O)c2c(F)c(Nc3c(Cl)cccc3Cl)c(Nc3c(Cl)cccc3Cl)c(F)c21 [(138)] | – | 630 | 22300 | .largecircle. (a solubility in the approximate range of 1 to 3% by weight) | .largecircle. (a solubility in the approximate range of 1 to 3% by weight) | Blue
